Experiments:
[1] = test system: Trypanosoma brucei rhodesiense; assay: Antiprotozoal activity against trypomastigote stage of Trypanosoma brucei rhodesiense STIB900 after 72 hrs by Alamar Blue assay; assay type: functional, organism-based; conditions: STIB900, 72 h
[2] = Selectivity index, ratio of IC50 for rat L6 cells to IC50 for Leishmania donovani MHOM/ET/67/L82 axenic amastigotes; assay type: toxicity; conditions: read-out: Ratio IC50
Leishmania donovani = assay: Antileishmanial activity against Leishmania donovani MHOM/ET/67/L82 axenic amastigotes after 72 hrs by alamar blue staining based fluorescence assay; assay type: functional, organism-based; conditions: MHOM/ET/67/L82, 72 h
[3] = Selectivity index, ratio of IC50 for rat L6 cells to IC50 for IEF stage of Plasmodium falciparum NF54; assay type: toxicity; conditions: read-out: Ratio IC50
[4] = Selectivity index, ratio of IC50 for rat L6 cells to IC50 for Trypanosoma cruzi Tulahuen C4 amastigotes harboring LacZ infected in rat L6 cells; assay type: toxicity, cell-based; conditions: read-out: Ratio IC50
L6 = assay: Cytotoxicity against rat L6 cells after 72 hrs by alamar blue assay; assay type: cell-based; conditions: L6, 72 h
Plasmodium falciparum = assay: microbe, parasite or virus in culture; conditions: NF54
Description: Antiplasmodial activity against IEF stage of Plasmodium falciparum NF54 assessed as reduction in [3H]hypoxanthine incorporation preincubated for 48 hrs followed by [3H]hypoxanthine addition measured after 24 hrs by liquid scintillation counting method

[5] = Selectivity index, ratio of IC50 for rat L6 cells to IC50 for trypomastigote stage of Trypanosoma brucei rhodesiense STIB900; assay type: toxicity; conditions: read-out: Ratio IC50
Trypanosoma cruzi = assay: Antitrypanosomal activity against Trypanosoma cruzi Tulahuen C4 amastigotes harboring LacZ infected in rat L6 cells after 96 hrs by CPRG/Nonidet reagent based photometric analysis; assay type: functional, organism-based; conditions: Tulahuen C4, L6, 96 h

Compound	IC50 [1] [µM]	selectivity ratio [2]	IC50 (Leishmania donovani) [µM]	selectivity ratio [3]	selectivity ratio [4]	IC50 (L6) [µM]	IC50 (Plasmodium falciparum) [µM]	selectivity ratio [5]	IC50 (Trypanosoma cruzi) [µM]
CC(C)C1=C2OC(C)(C)[C@H]3C[C@@]45O[C@]4(C)[C@H](O)C[C@@]4(CC[C@H]6C(C)(C)CCC[C@]67C[C@@]45[C@@]23O7)C1=O	74.6	1.1	44.1	12.9	2.4	46.9	3.6	0.6	19.8
C=CC1=C[C@@H]2[C@H]3C(C)=CO[C@]45O[C@]67CCCC(C)(C)[C@@H]6CC[C@](C1)(C(=O)[C@]3(C(C)C)C4=O)[C@]25C7	24.6	2.7	15.6	22	0.9	41.6	1.9	1.7	47.9
CC1=C2C[C@@H]3C(C)(C)O[C@]45O[C@@]4(C(C)C)C(=O)[C@]4(CC[C@H]6C(C)(C)CCC[C@]67C[C@]24[C@]35O7)CC1=O	30.5	5.9	12.3	56.9	6.3	72.2	1.3	2.4	11.5
CC(C)=C[C@H]1[C@@H]2C(C)=CC[C@]34CC[C@H]5C(C)(C)CCC[C@]56C[C@]23[C@@](O)(O6)C(=O)[C@]1(C(C)C)C4=O	66.9	2.2	21.3	44.2	1.3	47.2	1.1	0.7	35.8
CC1=C2[C@H](O)[C@@H]3C(C)(C)OC4=C(C(C)C)C(=O)[C@]5(CC[C@H]6C(C)(C)CCC[C@]67C[C@]25[C@@]43O7)CC1=O	45.3	1.8	7.5	1.8	3.6	13.6	7.5	0.3	3.8
CC(=O)[C@@]12C[C@H]3C(C)(C)OC4=C(C(C)C)C(=O)[C@]5(CC[C@H]6C(C)(C)CCC[C@]67C[C@@]51[C@@]43O7)C[C@H]2O	85.8	3.3	12.3	5.2	1.2	41.1	7.9	0.5	33.9
CC1=C2C[C@@H]3C(C)(C)OC4=C(C(C)C)C(=O)[C@]5(CC[C@H]6C(C)(C)CCC[C@]67C[C@]25[C@@]43O7)CC1=O	56	2.4	15.5	62.2	10.7	37.2	0.6	0.7	3.5
C[C@@H]1CC[C@H]2[C@@H](C)C(=O)O[C@@H]3O[C@@]4(C)CC[C@@H]1[C@]32OO4 [ARTEMISININ]	–	–	–	–	–	–	0.008	–	–
O=C(Cn1ccnc1[N+](=O)[O-])NCc1ccccc1 [BENZNIDAZOLE]	–	–	–	–	–	–	–	–	5.1
Nc1nc(N)nc(Nc2ccc([As]3SCC(CO)S3)cc2)n1 (configuration not stated) [MELARSOPROL]	0.04	–	–	–	–	–	–	–	–
CCCCCCCCCCCCCCCCOP(=O)([O-])OCC[N+](C)(C)C [MILTEFOSINE]	–	–	0.9	–	–	–	–	–	–

Reference: ChEMBL document CHEMBL4382273, “Antiprotozoal Isoprenoids from Salvia hydrangea” (J Nat Prod, 2018)
